According to US20240366611A1, “METHODS OF TREATING A DISEASE OR DISORDER” (Ascentage Pharma (Suzhou) Co., Ltd., priority 2021, published 2024):

Columns and labels:
[1] = test system: HBG mRNA in human CD34+ HSC; assay: HBG mRNA level in human CD34+ HSC (qRT-PCR); format: cell-based; conditions: 7 days of treatment
Procedure: (§1) Human cord blood CD34+ hematopoietic stem cells (HSC) were first expanded in the expansion medium (StemSpan SFEM II+StemSpan CD34 Expansion Supplement) to achieve the desired number of cells, and then differentiated in differentiation medium (StemSpan SFEM II+StemSpan Erythroid Expansion Supplement (100×)) for three days without drug treatment. Various concentrations of Cpd. 73 were added on the fourth day of differentiation and further incubated with the cells for another 7 days. 33 mM Hydroxyurea was used as the control.
After 7 days of treatment, the cells were collected. Total RNA was isolated using Trizol LS reagent (Invitrogen-10296028) and 1 μg RNA of each sample was reverse transcribed into cDNA using High Capacity cDNA Reverse Transcription Kit (AB (Applied Biosystems)-4374966), according to the manufacturer's instructions. Quantitative RT-PCR (qRT-PCR) was performed using an Applied Biosystems QuantStudio 7 Flex system with the primer pairs shown as below: hHBG-mRNA-F1 (5′-[…]-3′) and hHBG-mRNA-R1 (5′-TCACTCAGCTGGGCAAAGG-3′). […] The HBG mRNA level were 1.09-, 2.49-, 7.84-, 9.69- and 12.2-folds of the vehicle group when the cells were treated with 0.01 μM, 0.03 μM, 0.1 μM, 0.3 μM and 1.0 μM Cpd. 73 respectively. […] 73 which increased HBG mRNA by 12.2 folds (p<0.0001, vs. vehicle). The HBG mRNA level of cells treated with 33 mM Hydroxyurea, an approved medicine for SCD, was 6.46-folds of the vehicle group.

HbF in human CD34+ HSC = assay: HbF concentration in human CD34+ HSC by ELISA; format: cell-based; conditions: 7 days of treatment
Procedure: as §1
After 7 days of treatment, the cells were collected and lysed. The concentration of HbF in the cell lysate was determined using a Human Fetal Hemoglobin (HBF) ELISA Kit (MyBioSource, MBS2024474). […] The cellular HbF concentration were 1.27-, 1.39-, 1.52-, 1.58- and 1.69-folds of the vehicle group when the cells were treated with 0.01 μM, 0.03 μM, 0.1 μM, 0.3 μM and 1.0 μM Cpd. 73 respectively. […] 73 where the cellular HbF concentration was 1.69-folds of the vehicle group (p<0.01). HbF concentration of cells treated with 33 mM Hydroxyurea was 1.18-folds of the vehicle group. Clinically, small increases of HbF concentration (1-5%) have the potential to provide clinical benefits to all SCD patients.

[2] = test system: HbF+ cells in human CD34+ HSC; assay: HbF+ cell % in human CD34+ HSC by FACS; format: cell-based; conditions: 7 days of treatment
Procedure: as §1
After 7 days of treatment, the cells were collected and stained with PE-conjugated Mouse Anti-Human Fetal Hemoglobin (BD, 560041). The percentage of HbF+ cells were quantified by FACS. […] 73 respectively. […] 73 where HbF+ cell % was 2.58-folds of the vehicle group (p<0.0001). The % of HbF+ cells was 1.82-folds of the vehicle group when the cells were treated with 33 mM Hydroxyurea.

[3] = test system: chronic kidney disease-induced anemia in SD rats; assay: Rat model of chronic kidney disease-induced anemia (adenine); format: in vivo; conditions: 5, 15, 45 mg/kg po QD×4 weeks, end of study
Procedure: SPF-grade male SD rats (200±20 g, 8 weeks) were purchased from Zhejiang Vital River Laboratory Animal Technology Co., Ltd. After acclimating for a week, blood samples were collected and analyzed to exclude anormal animals. The normal animals were randomized, 10 animals were assigned into Control group which were left untreated until the end of the study, and the rest animals received 300 mg/kg adenine by oral gavage (QD×6 weeks). […] Then 60 adenine-treated rats with successful model establishment were further randomized into the following six groups: Model group (treated with vehicle), EPO group (50 U/kg), Cpd. 73 5 mg/kg group, Cpd. 73 15 mg/kg group, Cpd. 73 45 mg/kg group and CPD. 73+EPO group (15 mg/kg+50 U/kg). Each group contained 10 animals. Cpd. 73 was administered to rats by oral gavage (QD×4 weeks), while EPO was subcutaneously administered (TIW×4 weeks).
Body weight, mortality and health condition of rats were recorded twice a week. After model establishment, blood samples were take from the orbit and a few parameters were determined including RBC, HGB, HCT, RET, BUN and Creatine. Blood samples were taken once a week during drug treatment and RBC, HGB, HCT, and RET were analyzed.

Compound: CC(C)N1Cc2cc(C(F)(F)F)ncc2-c2cnc(NCc3c(F)ccc4c3CCO4)n3cnc(c23)C1=O [Cpd. 73, 12-(((5-fluoro-2,3-dihydrobenzofuran-4-yl)methyl)amino)-4-isopropyl-7-(trifluoromethyl)-4,5-dihydro-3H-2,4,8,11,12a-pentaazabenzo[4,5]cycloocta[1,2,3-cd]inden-3-one]
- HBG mRNA level, folds of the vehicle group ([1]; 0.01 μM): 1.09 folds
- HBG mRNA level, folds of the vehicle group ([1]; 0.03 μM): 2.49 folds
- HBG mRNA level, folds of the vehicle group ([1]; 0.1 μM): 7.84 folds
- HBG mRNA level, folds of the vehicle group ([1]; 0.3 μM): 9.69 folds
- HBG mRNA level, folds of the vehicle group ([1]; 1.0 μM, maximal effect, p<0.0001 vs vehicle): 12.2 folds
- cellular HbF concentration, folds of the vehicle group (HbF in human CD34+ HSC; 0.01 μM): 1.27 folds
- cellular HbF concentration, folds of the vehicle group (HbF in human CD34+ HSC; 0.03 μM): 1.39 folds
- cellular HbF concentration, folds of the vehicle group (HbF in human CD34+ HSC; 0.1 μM): 1.52 folds
- cellular HbF concentration, folds of the vehicle group (HbF in human CD34+ HSC; 0.3 μM): 1.58 folds
- cellular HbF concentration, folds of the vehicle group (HbF in human CD34+ HSC; 1.0 μM, maximal effect, p<0.01): 1.69 folds
- % of HbF+ cells, folds of the vehicle group ([2]; 0.01 μM): 0.73 folds
- % of HbF+ cells, folds of the vehicle group ([2]; 0.03 μM): 0.86 folds
- % of HbF+ cells, folds of the vehicle group ([2]; 0.1 μM): 1.50 folds
- % of HbF+ cells, folds of the vehicle group ([2]; 0.3 μM): 1.73 folds
- % of HbF+ cells, folds of the vehicle group ([2]; 1.0 μM, maximal effect, p<0.0001): 2.58 folds
- body weight ([3]; p<0.001 or 0.01 vs Model): dose-dependently improved
- HCT ([3]; p<0.001 or 0.05 vs Model): dose-dependently improved
- HGB ([3]; p<0.001 or 0.05 vs Model): dose-dependently improved
- RBC ([3]; p<0.001 or 0.05 vs Model): dose-dependently improved
- RET ([3]; p<0.001 or 0.05 vs Model): dose-dependently improved
